# Test: Adsorption force of the first compound
# Assay type: physicochemical
# Set-up: unit not given here
# Conditions: adsorption to pixel electrode; unit not given; larger absolute value = stronger adsorption
# From the text: Next, a physical characteristic of the first compound according to an example embodiment obtained as above-described and a comparative example are compared.
# As described in Table 2, solubility and adsorption force of the first compound according to Examples 1 to 7 and the Comparative Example are described.
# Referring to Table 2, in the case of the first compound according to an example embodiment, it is confirmed that the solubility is the same level as or higher than the comparative example. Also, it may be confirmed that an absolute value of the adsorption force of the first compound is the same level as or higher than the comparative example. Accordingly, the first compound may be easily absorbed to the pixel electrode, thereby it may be confirmed that the solubility is excellent when being injected to the liquid crystal material and the first compound is easily injected along with the liquid crystal material.
row,SMILES,Adsorption force
1,"C=C(C)C(=O)OCCCc1cc(-c2ccccc2CC)cc(CCCOC(=O)C(=C)C)c1OCCCCCc1ccc(OCCCCCO)cc1 [Comparative Example, reference compound]",−0.49
2,C=C(CCN(CCO)CCO)Oc1ccc(C(=O)c2ccc(OC(=O)C(=C)C)cc2)cc1 [Example 1],−1.27
3,C=C(C)C(=O)OCCCCCOc1ccc(C(=O)c2ccc(OCCCCCCOC(=O)CCN(CCO)CCO)cc2)cc1 [Example 2],−1.34
4,C=C(C)C(=O)OCCCCCOc1c(F)cc(-c2ccc(OCCCCCCOC(=O)CCN(CCC)CCO)cc2)cc1F [Example 3],−0.99
5,C=CC(=O)OCCOc1c(F)cc(-c2ccc(OCCOC(=O)CCOC3CCOCC3)cc2)cc1F [Example 4],−0.40
6,C=CC(=O)OCCOc1c(F)cc(-c2ccc(OCCOC(=O)CCOCc3ccoc3)cc2)cc1F [Example 5],−0.45
7,C=CC(=O)OCCOc1c(F)cc(-c2ccc(OCCOC(=O)CCOCc3cccnn3)cc2)cc1F [Example 6],−0.51
8,C=CC(=O)OCCOc1c(F)cc(-c2ccc(OCCOC(=O)CCOCc3ccon3)cc2)cc1F [Example 7],−0.53

# From patent publication US10414983B2, “Curved liquid crystal display” (SAMSUNG DISPLAY CO., LTD., priority 2017, dated 2019)
